Type in all cases: cell-based, human
Series [1] deals with MDA PCa 2b prostate cancer cells. In words: Colony forming ability of MDA PCa 2b prostate cancer cells. To be noted: MDA PCa 2b cells.
The test system of another series is AR-V7 RNA. Nature of the series: AR-V7 RNA by QRT-PCR in prostate cancer cells transfected with SSO. To be noted: RNA 72 hours after transfection, normalized to TBP. How it is done: LN95, VCaP, 22Rv1 and MDA PCa 2b cells were treated with control scrambled SSO or with increasing concentrations of AR-V7 SSO, as indicated. RNA was harvested 72 hours after transfection for cDNA production and QRT-PCR analysis. Ct values were normalized to TBP, TATA-binding protein, in each sample and used to generate relative expression values.
(§1) MDA PCa 2b cells were treated with transfection reagent alone or with increasing concentrations of AR45 SSO, as indicated. RNA was harvested 72 hours after transfection for cDNA production and QRT-PCR analysis. Ct values were normalized to TBP, TATA-binding protein, in each sample and used to generate relative expression values.

The subject of series [2] is LN95 prostate cancer cells. In words: Proliferation of LN95 prostate cancer cells.
For the next series, the system named is AR-V7 protein. Nature of the series: AR-V7 protein in LN95 prostate cancer cells transfected with SSO. To be noted: increasing concentrations of SSO.
The test system of series [3] is EGFR pre-mRNA. Nature of the series: RT-PCR (endpoint, gel) of EGFR exon 16 / exon 18 skipping in LNCaP cells. Particulars: increasing concentrations of SSO vs transfection reagent alone, RNA 72 hrs after transfection. How it is done: LNCaP cells were treated with transfection reagent alone or with increasing concentrations of exon 16 (left) or exon 18 (right) SSO. RNA was harvested 72 hrs after transfection. Targets were visualized by RT-PCR using primers located in the exons flanking the target exon, as depicted above the gel images. Products were confirmed by sequencing.
LNCaP cells were treated with transfection reagent alone or with increasing concentrations of exon 16 (SSO #1, left in FIG. 8) or exon 18 (SSO #2, right in FIG. 8). RNA was harvested 72 hours after transfection. Targets were visualized by RT-PCR using primers located in the exons flanking the target exon, as depicted above the gel images in FIG. 8. Products were confirmed by sequencing. The primers used were: […]

Another series relates to pEGFR. In words: pEGFR Western blot in LNCaP cells after EGF exposure. To be noted: 250 nM SSO, 72 hrs post transfection, 10 ng/ml EGF for 10 minutes, normalized to GAPDH and vehicle control. How it is done:
LNCaP cells were treated with transfection reagent alone or with 250 nM EGRF exon 16 or 18 SSOs. 72 hrs post transfection, cells were exposed to 10 ng/ml EGF for 10 minutes before lysing and haresting total protein. pEGFR and GAPDH were visualized via Western blot and imaged and quantified on a Licor Odyssey Fc. pEGFR quantities are normalized to GAPDH and then to vehicle control.
LNCaP cells were treated with transfection reagent alone or with 250 nM EGFR exon 16 or 18 SSOs. 72 hours post transfection, cells were exposed to 10 ng/mL EGF for 10 minutes before lysing and harvesting total protein. pEGFR and GAPDH were visualized via Odyssey Fc. pEGFR quantities are normalized to GAPDH and then to vehicle control.
On the technique in general: In western blotting, separated proteins are transferred to a membrane and probed.

The test system of series [4] is EGFR pre-mRNA. Nature of the series: qPCR quantitation of EGFR exon 16 / exon 18 skipped products. Particulars: increasing concentrations of SSO. The source says:
qPCR primers correspond to those used in FIG. 10 and endpoint PCR primers correspond to those used in FIG. 8.
In general terms: Quantitative PCR measures a nucleic acid by following its amplification.

A further series concerns wild type AR. In words: Wild type (full-length) AR RNA by QRT-PCR in MDA PCa 2b cells transfected with SSO. Particulars: increasing concentrations of SSO vs transfection reagent alone, RNA 72 hours after transfection, normalized to TBP. How it is done:
as §1

The subject of a further series is AR signaling. In words: AR signaling: QRT-PCR of known AR induced and AR repressed targets in MDA PCa 2b cells. To be noted: 400 nM SSO vs transfection reagent alone, RNA 72 hours after transfection. How it is done: MDA Pca 2b cells were treated with transfection reagent alone or with 400 nM AR45 SSO. RNA was harvested 72 hours after transfection for cDNA production and QRT-PCR analysis (Light green=known AR induced targets, dark green=known AR repressed targets).

Another series has as its system AR45. In words: AR45 RNA by QRT-PCR in MDA PCa 2b cells transfected with SSO. To be noted: increasing concentrations of SSO vs transfection reagent alone, RNA 72 hours after transfection, normalized to TBP. As for the experimental part:
as §1

“Also recorded” adds a separate entry of the source. In the oligonucleotide strings, read from the 5' end, every base follows the letter of its sugar. An asterisk marks phosphorothioate; unmarked linkages are phosphodiester. Other units and linkages are bracketed, terminal groups are in braces. A string of capitals states the bases alone. m = 2'-O-methyl

“mG*mC*mC*mA*mA*mC*mC*mC*mG*mG*mA*mA*mU*mU*mU*mU*mU*mC [AR-V7 SSO]”: the colony forming ability result in series [1] is listed as “inhibiting colony forming ability”. The “AR-V7 RNA relative expression” value in the series on AR-V7 RNA (22Rv1 cells, vs control scrambled SSO) was “inhibiting AR-V7 RNA; also recorded: Dose-dependent inhibition of AR-V7”; in the series on AR-V7 RNA (LN95 cells, increasing concentrations of SSO vs control scrambled SSO), “inhibiting AR-V7 RNA (left) and protein (right) in a dose-dependent manner; also recorded: Dose-dependent inhibition of AR-V7”; in the series with AR-V7 RNA (MDA PCa 2b cells, vs control scrambled SSO), “inhibiting AR-V7 RNA; also recorded: Dose-dependent inhibition of AR-V7”; in the series on AR-V7 RNA (VCaP cells, vs control scrambled SSO), “inhibiting AR-V7 RNA; also recorded: Dose-dependent inhibition of AR-V7”. The proliferation entry in series [2] was “inhibiting proliferation”. Moreover, the “proliferation in the presence of enzalutamide” value in [2] (in the presence of enzalutmide) is “inhibiting proliferation”. In the series with AR-V7 protein, the AR-V7 protein result was “inhibiting AR-V7 RNA (left) and protein (right) in a dose-dependent manner”.
For “mC*mC*mA*mG*mG*mG*mA*mC*mC*mU*mU*mA*mC*mC*mU*mU*mA*mU [EGFR exon 18 SSO]”, in the series with EGFR pre-mRNA [3], the “production of dominant-negative EGFR variants (exon skipping, RT-PCR gel)” value was “drive production of dominant-negative EGFR variants in a dose-dependent manner”. In addition, the pEGFR protein expression result is given as “block pEGFR protein expression” in the series on pEGFR and “inhibition of pEGFR expression” in the series on pEGFR (listed as EGRF exon 18 SSO). In the series on EGFR pre-mRNA [4], the “production of dominant-negative EGFR variants (quantitated, qPCR of skipped product)” value was “drive production of dominant-negative EGFR variants in a dose-dependent manner”.
For the substance “mG*mG*mA*mA*mA*mA*mA*mC*mU*mU*mA*mC*mC*mG*mC*mA*mU*mG [AR45 SSO]”, the “expression of wild type (full-length) AR RNA” value in the series with wild type AR is “decreasing wild type AR and AR-V7; also recorded: decreasing expression of full-length AR”. Also, the “expression of AR-V7 RNA” value in the series with AR-V7 RNA (MDA PCa 2b cells, increasing concentrations of SSO vs transfection reagent alone) was “decreasing wild type AR and AR-V7; also recorded: decreasing expression of full-length AR and the constitutively active AR variant, AR-V7”. In addition, in the series with AR signaling, the “AR signaling (RNAs of AR induced and AR repressed targets)” value is “modulating AR signaling; also recorded: Modulation of AR signaling”. Further, the “production of AR45 (RNA relative expression)” value in the series on AR45 is “drives production of the dominant-negative AR variant, AR45”.
Turning to “mG*mC*mU*mG*mU*mG*mA*mA*mC*mA*mC*mU*mU*mA*mC*mC*mC*mA [EGFR exon 16 SSO]”, the “production of dominant-negative EGFR variants (exon skipping, RT-PCR gel)” value in the series on EGFR pre-mRNA [3] is “drive production of dominant-negative EGFR variants in a dose-dependent manner”. Besides, the pEGFR protein expression result in the series on pEGFR is “block pEGFR protein expression”; in the series on pEGFR (listed as EGRF exon 16 SSO), “inhibition of pEGFR expression”. Further, the “production of dominant-negative EGFR variants (quantitated, qPCR of skipped product)” value in the series with EGFR pre-mRNA [4] was “drive production of dominant-negative EGFR variants in a dose-dependent manner”.

The values are drawn from patent publication US12071626B2, “Splice-switching oligonucleotides and methods of use” (priority 2015, dated 2024).
